Test results published in US8486962B2, “Antifungal agents” (F2G Ltd., priority 2005, dated 2013).
Converted amounts (≈) assume the structure as drawn. Like-named read-outs stand apart in the source and are kept apart here.

Legend:
Type in all cases: cell-based
[1] = test system: Aspergillus fumigatus AF210; assay: MIC, YAG medium, Aspergillus fumigatus AF210; conditions: Aspergillus fumigatus, AF210; YAG medium; read-out: MIC A Fum. 210
Method: (§1) Measurement of Minimum Inhibitory Concentrations (MICs)
(§2) Between 1 and 5 mgs of compound were accurately weighed out into a sterile Eppendorf tube. The compound was dissolved in DMSO to give a solution containing 5 mg/ml. Tubes were stored at −20° C. until required.
(§3) On the day of testing thawed solutions were vortex mixed to ensure homogeneity. 30 μl of solution was removed and added to 570 μl of sterile water in a separate sterile Eppendorf. The thoroughly mixed solution was used to prepare a series of doubling dilutions in water, in a deep well plate. Eleven replicate plates were prepared using a Minitrak by aspirating 20 μl from each well into eleven clear polystyrene 96 well plates.
(§4) Spores of Aspergillus spp (Aspergillus fumigatus, Aspergillus terreus, Aspergillus niger and Aspergillus flavus) were harvested from cultures grown on Sabarauds agar for 5 days, and resuspended in PBS/Tween 80 to approx 1×10^7 cfu/ml Other filamentous fungi (Fusarium solani, Scedosporium spp., Trichophyton spp., Absidia corymbifera), were grown on Sabarauds agar for 2-10 days and spores/hyphae resuspended in PBS/Tween to give approx 1×10^7 cfU/ml. Candida species (Candida albicans, Candida glabrata, Candida krusei, Candida parapsilosis and Candida tropicalis) were grown on Sabarauds agar, cells were harvested from the agar using a sterile loop and resuspended in PBS/Tween 80 to approx 1×10^6 cfu/ml. Each organism suspension was diluted in RPMI medium, containing 2% glucose and 0.135M MOPS buffer (pH7.0) to 2×10^4 cfu/ml for Aspergillus spp and other filamentous fungi and 2×10^3 cfu/ml for yeast. 80 μl of an organism suspension was added to each well of the plate containing drug dilutions.
(§5) This produced MIC plates with a drug range 50-0.05 mg/L and organism inocula of 1-2×10^4 cfu/ml for Aspergillus spp and other filamentous fungi and 1-2×10^3 cfu/ml for yeasts. All plates were incubated for 24-48 hrs at 35° C. Growth was assessed by monitoring the optical density at 485 nm for each well. The MIC of a compound is the lowest drug concentration that inhibits growth of an organism by >80% compared with a drug free control. MICs are recorded as mg/L. Other growth media can be used for susceptibility testing, and the activity of the described compounds can also be assessed in a medium comprising, 1% glucose, 1% ammonium chloride and 0.5% yeast extract (YAG medium). To perform MIC tests in this medium, dilutions of compounds are prepared in microtitre plates as described above. Fungal strains to be tested are grown and harvested in an identical manner to that described above, each organism suspension is then diluted in YAG medium to 2×10^4 cfu/ml for Aspergillus spp and other filamentous fungi and 2×10^3 cfu/ml for yeast. 80 μl of an organism suspension was added to each well of the plate containing drug dilutions. This produced MIC plates with a drug range 50-0.05 mg/L and organism inocula of 1-2×10^4 cfu/ml for Aspergillus spp and other filamentous fungi and 1-2×10^3 cfu/ml for yeasts. All plates were incubated for 24 hrs at 35° C. Growth was assessed by monitoring the optical density at 485 nm for each well. The MIC of a compound is the lowest drug concentration that inhibits growth of an organism by >70% compared with a drug free control. MICs are recorded as mg/L. In cases where the MIC of an organism is […]0.05 mg/L the MIC is repeated using a concentration range of 0.5-0.0005 mg/L. MIC tests in YAG medium have more clear-cut endpoints and have slightly lower MICS than those performed in RPMI medium.
(§6) The following organisms were tested: Aspergillus fumigatus AF293 and Aspergillus fumigatus AF210, Aspergillus niger, Aspergillus terreus, Aspergillus favus, Candida albicans, Candida krusei, Candida tropicalis, Candida glabrata, Candida parapsilosis, Trichophyton rubrum, Trichophyton mentagrophytes, Scedosporium prolificans, Scedosporium apiospermum, Absidia corymbifera, Fusarium solani.

Aspergillus terreus = assay: MIC, YAG medium, Aspergillus terreus; conditions: Aspergillus terreus, YAG medium
Method: as §1, §2, §3, §4, §5, §6

Aspergillus niger = assay: MIC, YAG medium, Aspergillus niger; conditions: Aspergillus niger, YAG medium
Method: as §1, §2, §3, §4, §5, §6

[2] = test system: Aspergillus fumigatus AF293; assay: MIC, YAG medium, Aspergillus fumigatus AF293; conditions: Aspergillus fumigatus, AF293; YAG medium; read-out: MIC A Fum. 293
Method: as §1, §2, §3, §4, §5, §6

Aspergillus flavus = assay: MIC, YAG medium, Aspergillus flavus; conditions: Aspergillus flavus, YAG medium
Method: as §1, §2, §3, §4, §5, §6

| Structure (SMILES) | MIC [1] [µg/mL] | MIC (Aspergillus terreus; read-out: MIC A Terreus 4) [µg/mL] | MIC (Aspergillus niger; read-out: MIC A Niger 1) [µg/mL] | MIC [2] [µg/mL] | MIC (Aspergillus flavus; read-out: MIC A Flavus 01) [µg/mL] | MIC (Aspergillus terreus; read-out: MIC A Terreus) [µg/mL] | MIC (Aspergillus niger; read-out: MIC A Niger) [µg/mL] | MIC (Aspergillus flavus; read-out: MIC A Flavus) [µg/mL] |
| --- | --- | --- | --- | --- | --- | --- | --- | --- |
| O=C(Nc1ccc(Cl)cc1Cl)C(=O)c1c(-c2cccnc2)cc2ccccn12 [Example 224, N-(2,4-Dichloro-phenyl)-2-oxo-2-(2-pyridin-3-yl-indolizin-3-yl)-acetamide] | 6.25 (≈ 15.2 µM) | 0.1 (≈ 0.244 µM) | 0.2 (≈ 0.487 µM) | 6.25 (≈ 15.2 µM) | 0.05 (≈ 0.122 µM) | – | – | – |
| COc1ccc(NC(=O)C(=O)c2c(-c3cccnc3)cc3ccccn23)cc1 [Example 147, N-(4-Methoxy-phenyl)-2-oxo-2-(2-pyridin-3-yl-indolizin-3-yl)-acetamide] | 6.25 (≈ 16.8 µM) | 3.1 (≈ 8.35 µM) | 0.1 (≈ 0.269 µM) | 12.5 (≈ 33.7 µM) | 0.1 (≈ 0.269 µM) | – | – | – |
| O=C(Nc1cccnc1)C(=O)c1c(-c2ccccc2)cc2ccccn12 [Example 152, 2-Oxo-2-(2-phenyl-indolizin-3-yl)-N-pyridin-3-yl-acetamide] | 25 (≈ 73.2 µM) | 0.8 (≈ 2.34 µM) | 0.4 (≈ 1.17 µM) | 12.5 (≈ 36.6 µM) | 1.6 (≈ 4.69 µM) | – | – | – |
| O=C(Nc1ccccn1)C(=O)c1c(-c2ccccc2)cc2ccccn12 [Example 151, 2-Oxo-2-(2-phenyl-indolizin-3-yl)-N-pyridin-2-yl-acetamide] | 6.25 (≈ 18.3 µM) | 0.4 (≈ 1.17 µM) | 0.4 (≈ 1.17 µM) | 6.25 (≈ 18.3 µM) | 1.6 (≈ 4.69 µM) | – | – | – |
| COC(=O)c1ccc(OC(=O)C(=O)c2c(-c3ccccc3)cc3ccccn23)cc1 [Example 177, 4-[2-Oxo-2-(2-phenyl-indolizin-3-yl)-acetoxy]-benzoic acid methyl ester] | > 50 | 6.25 (≈ 15.6 µM) | 6.25 (≈ 15.6 µM) | 50 (≈ 125 µM) | > 50 | – | – | – |
| COc1ccc(NC(=O)C(=O)c2c(-c3ccccn3)cc3ccccn23)c(OC)c1 [Example 176, N-(2,4-Dimethoxy-phenyl)-2-oxo-2-(2-pyridin-2-yl-indolizin-3-yl)-acetamide] | > 50 | > 50 | 3.1 (≈ 7.72 µM) | > 50 | > 50 | – | – | – |
| O=C(Nc1cc(Cl)cc(Cl)c1)C(=O)c1c(-c2cccnc2)cc2ccccn12 [Example 227, N-(3,5-Dichloro-phenyl)-2-oxo-2-(2-pyridin-3-yl-indolizin-3-yl)-acetamide] | 0.8 (≈ 1.95 µM) | 0.05 (≈ 0.122 µM) | 1.6 (≈ 3.9 µM) | 1.6 (≈ 3.9 µM) | 0.05 (≈ 0.122 µM) | – | – | – |
| O=C(C(=O)N1CCOCC1)c1c(-c2ccccc2)cc2ccccn12 [Example 300, 1-Morpholin-4-yl-2-(2-phenyl-indolizin-3-yl)-ethane-1,2-dione] | > 50 | – | – | > 50 | – | > 50 | 25 (≈ 74.8 µM) | > 50 |
| CNC(=O)C(=O)c1c(-c2ccccc2)cc2ccccn12 [Example 179, N-Methyl-2-oxo-2-(2-phenyl-indolizin-3-yl)-acetamide] | 12.5 (≈ 44.9 µM) | 6.25 (≈ 22.5 µM) | > 50 | 12.5 (≈ 44.9 µM) | 25 (≈ 89.8 µM) | – | – | – |
| O=C(Nc1ccccc1Cl)C(=O)c1c(-c2cccnc2)cc2ccccn12 [Example 216, N-(2-Chloro-phenyl)-2-oxo-2-(2-pyridin-3-yl-indolizin-3-yl)-acetamide] | 6.25 (≈ 16.6 µM) | 0.2 (≈ 0.532 µM) | 0.4 (≈ 1.06 µM) | 6.25 (≈ 16.6 µM) | 0.2 (≈ 0.532 µM) | – | – | – |
| COc1ccc(NC(=O)C(=O)c2c(-c3ccccc3)cc3cccc(C)n23)cn1 [Example 189, N-(6-Methoxy-pyridin-3-yl)-2-(5-methyl-2-phenyl-indolizin-3-yl)-2-oxo-acetamide] | 3.1 (≈ 8.04 µM) | 1.6 (≈ 4.15 µM) | 0.8 (≈ 2.08 µM) | 3.1 (≈ 8.04 µM) | 3.1 (≈ 8.04 µM) | – | – | – |
| Cc1ccc(NC(=O)C(=O)c2c(-c3cccnc3)cc3ccc(C)cn23)cc1 [Example 199, 2-(6-Methyl-2-pyridin-3-yl-indolizin-3-yl)-2-oxo-N-p-tolyl-acetamide] | > 50 | 1.6 (≈ 4.33 µM) | > 50 | > 50 | > 50 | – | – | – |
| COCCNC(=O)C(=O)c1c(-c2ccccc2)cc2ccccn12 [Example 181, N-(2-Methoxy-ethyl)-2-oxo-2-(2-phenyl-indolizin-3-yl)-acetamide] | 25 (≈ 77.6 µM) | 25 (≈ 77.6 µM) | 25 (≈ 77.6 µM) | 50 (≈ 155 µM) | 25 (≈ 77.6 µM) | – | – | – |
| O=C(Nc1ccc(Cl)cc1)C(=O)c1c(-c2ccc(F)cc2)cc2ccccn12 [Example 210, N-(4-Chloro-phenyl)-2-[2-(4-fluoro-phenyl)-indolizin-3-yl]-2-oxo-acetamide] | > 50 | 0.05 (≈ 0.127 µM) | 0.05 (≈ 0.127 µM) | > 50 | 0.05 (≈ 0.127 µM) | – | – | – |
| Cc1ccc(NC(=O)C(=O)c2c(-c3ccco3)cc3ccccn23)cc1 [Example 168, 2-(2-Furan-2-yl-indolizin-3-yl)-2-oxo-N-p-tolyl-acetamide] | 3.1 (≈ 9 µM) | 1.6 (≈ 4.65 µM) | 0.4 (≈ 1.16 µM) | 1.6 (≈ 4.65 µM) | 0.4 (≈ 1.16 µM) | – | – | – |
| Cc1ccc(NC(=O)C(=O)c2c(-c3ccccc3)cc3cccc(C)n23)cc1 [Example 188, 2-(5-Methyl-2-phenyl-indolizin-3-yl)-2-oxo-N-p-tolyl-acetamide] | 0.8 (≈ 2.17 µM) | 0.8 (≈ 2.17 µM) | 0.4 (≈ 1.09 µM) | 1.6 (≈ 4.34 µM) | 3.1 (≈ 8.41 µM) | – | – | – |
| COc1ccc(NC(=O)C(=O)c2c(-c3ccncc3)cc3ccccn23)c(OC)c1 [Example 172, N-(2,4-Dimethoxy-phenyl)-2-oxo-2-(2-pyridin-4-yl-indolizin-3-yl)-acetamide] | 25 (≈ 62.3 µM) | 1.6 (≈ 3.99 µM) | 3.1 (≈ 7.72 µM) | 25 (≈ 62.3 µM) | 0.4 (≈ 0.996 µM) | – | – | – |
| O=C(C(=O)N1CCCCC1)c1c(-c2ccccc2)cc2ccccn12 [Example 184, 1-(2-Phenyl-indolizin-3-yl)-2-piperidin-1-yl-ethane-1,2-dione] | 6.25 (≈ 18.8 µM) | 6.25 (≈ 18.8 µM) | 0.8 (≈ 2.41 µM) | 25 (≈ 75.2 µM) | 50 (≈ 150 µM) | – | – | – |
